From patent publication US20240254107A1, “RNA-TARGETING LIGANDS, COMPOSITIONS THEREOF, AND METHODS OF MAKING AND USING THE SAME” (THE UNIVERSITY OF NORTH CAROLINA AT CHAPEL HILL, priority 2021, published 2024)
Like-named read-outs stand apart in the source and are kept apart here. Each block holds one compound with its values, some of them ahead of it.

What was measured:
TPP riboswitch RNA = assay: Isothermal titration calorimetry (ITC) binding to TPP riboswitch RNA; details: for binding cooperativity with 2: ITC with and without pre-bound 2
[1] = system: TPP riboswitch region of the screening construct; assay: SHAPE / SHAPE-MaP fragment screening and replicate hit validation; format: binding; details: RNA pre-bound to primary fragment, fragment 1 mM, 5NIA reagent
Description: Fragments were obtained as a fragment screening library from Maybridge, which was a subset of their Ro3 diversity fragment library and contained 1500 compounds dissolved in DMSO at 50 mM. Most of these compounds adhere to the “rule of three” for fragment compounds; having a molecular mass <300 Da, containing ≤3 hydrogen bond donors and ≤3 hydrogen bond acceptors, and ClogP ≤3.0. All compounds used for ITC, with the exception of those listed in Example 5, were purchased from Millipore-Sigma and used without further purification. Screening experiments were carried out in 25 μL in 96-well plate format on a Tecan Freedom Evo-150 liquid handler equipped with an 8-channel air displacement pipetting arm, disposable filter tips, robotic manipulator arm, and an EchoTherm RIC20 remote controlled heating/cooling dry bath (Torrey Pines Scientific). Liquid handler programs used for screening are available upon request. […]
Once screening of test fragments is complete, statistical tests are carried out to identify differences in modification rates of a given nucleotide. […] That is, if m1 modifications of a tested nucleotide were counted among n1 reads in sample 1 and m2 modifications were counted among n2 reads in sample 2, the tested null hypothesis predicts that among all the counted modifications (m1+m2), the proportion of modifications in sample 1 will be p1=n1/(n1+n2). […]

[2] = Table 4, fragment 5 analogs, pendant groups, ITC, read-out: Kd
[3] = Table 4, fragment 5 analogs, pendant groups, ITC
[4] = Table 8, linked analogs, read-out: Kd

Compound: c1cc2[nH]cnc2cn1 [Compound 6]
- Kd (TPP riboswitch RNA; Table 3, fragment 5 analogs, pyridine core modifications, ITC, read-out: Kd): 265 µM

Compound: Cc1ncc(C[n+]2csc(CCOP(=O)([O-])OP(=O)(O)O)c2C)c(N)n1 [Compound 9, thiamine pyrophosphate, reference compound]
- Kd (TPP riboswitch RNA; Table 1, SHAPE-detected fragment hits, ITC, read-out: Kd): 0.028 ± 0.002 µM

Compound: Cc1cccc2nccnc12 [Compound 23]
- Kd (TPP riboswitch RNA; Table 2B, fragment 2 analogs, pendant groups, ITC, read-out: Kd): 220 µM

Compound: O=C(O)c1csc2ccc(Cl)cc12 [Compound 29]
- binding detected by SHAPE, second-round screen [1]: induced a very robust change in the SHAPE reactivity signal

Compound: c1cc(N2CCNCC2)ccn1 [Compound 31]
- binding cooperativity with 2 (TPP riboswitch RNA): clear, but modest, binding cooperativity

Compound: Cc1cnccc1N1CCNCC1 [Compound 32]
- binding cooperativity with 2 (TPP riboswitch RNA): clear, but modest, binding cooperativity

Compound: O=C(CCCC(=O)Nc1ccc2nccnc2c1)NO [KW-5-1, N^1-hydroxy-N^5-(quinoxalin-6-yl)glutaramide]
- Kd (TPP riboswitch RNA; [4]): 477 µM

Compound: O=C(O)CCC(=O)Nc1ccc2nccnc2c1 [KW-16-1]
- Kd (TPP riboswitch RNA; [4]): 653 µM

Compound: O=C(CNc1cnccc1N1CCNCC1)Nc1ccc2nccnc2c1 [KW-29-1, 2-((4-(piperazin-1-yl)pyridin-3-yl)amino)-N-(quinoxalin-6-yl)acetamide]
- Kd (TPP riboswitch RNA; [4]): 10.5 µM

Compound: O=C(CNc1ccc2nccnc2c1)NO [KW-31-1, N-hydroxy-2-(quinoxalin-6-ylamino)acetamide]
- Kd (TPP riboswitch RNA; [4]): 58.1 µM

Compound: CN(C)CCN(C=O)Cc1ccc2nccnc2c1 [KW-79-1, N-(2-(dimethylamino)ethyl)-N-(quinoxalin-6-ylmethyl)formamide]
- Kd (TPP riboswitch RNA; [4]): 69.1 µM

The remaining lines, values ahead:

- Kd (TPP riboswitch RNA; [2]): 440 µM
Compound: COC(=O)c1ccc(Br)nc1 [Compound S5]

- Kd (TPP riboswitch RNA; [2]): 390 µM
Compound: COC(=O)c1ccc([N+](=O)[O-])nc1 [Compound S6]

- Kd (TPP riboswitch RNA; [2]): 1800 µM
Compound: CCOc1ccc(C(=O)OC)cn1 [Compound S7]

- Kd (TPP riboswitch RNA; [2]): 1100 µM
Compound: COC(=O)c1ccc(C)nc1 [Compound S8]

- Kd (TPP riboswitch RNA; [3]): no binding
Compound: COC(=O)c1ccc(C(F)(F)F)nc1 [Compound S9]

- Kd (TPP riboswitch RNA; [3]): no binding
Compound: COC(=O)c1ccc(Oc2ccccc2)nc1 [Compound S10]

- Kd (TPP riboswitch RNA; [2]): 820 µM
Compound: COC(=O)c1cnc(Cl)c(Cl)c1 [Compound S11]

- Kd (TPP riboswitch RNA; [2]): 93 µM
- fold higher affinity for the TPP riboswitch than fragment 5 (TPP riboswitch RNA; relative to fragment 5): approximately threefold
Compound: COC(=O)c1cnc(Cl)cc1Cl [Compound S12]

- Kd (TPP riboswitch RNA; [2]): 600 µM
Compound: CCOC(=O)c1ccc(Cl)nc1 [Compound S13]

- Kd (TPP riboswitch RNA; [2]): 1300 µM
Compound: OCc1ccc(Cl)nc1 [Compound S14]

- Kd (TPP riboswitch RNA; [2]): 1800 µM
Compound: NC(=O)c1ccc(Cl)nc1 [Compound S15]

- Kd (TPP riboswitch RNA; [2]): 1300 µM
Compound: NS(=O)(=O)c1ccc(Cl)nc1 [Compound S16]

- Kd (TPP riboswitch RNA; [3]): no binding
Compound: CCS(=O)(=O)c1ccc(Cl)nc1 [Compound S17]

- Kd (TPP riboswitch RNA; [3]): no binding
Compound: CN(C)C(=O)c1ccc(Cl)nc1 [Compound S18]
